Experimental data from a melting point compilation (Tetko et al.; mined from patent text by program, amines drawn as free bases though some values may be those of a salt).

| melting point [°C] | Compound |
| --- | --- |
| 155 to 156 | COc1ccc(CSc2nnc(-c3ccc4nccn4c3)o2)cc1 |
| 81 to 82 | Cc1cc2c(cc1N1CC=CC1)OC(=O)C2C (stereo not given) |
| 158 | COC(=O)C1=C(C)NN=C(c2ccccc2)C1c1ccccc1 (stereo not given) |
| 159 to 160 | CCOC(=O)c1cccc(-n2nc(C(=O)OCC)c3csc(N)c3c2=O)c1 |
| 43 to 46 | CCOC(=O)c1cn(C)nc1C(F)F |
| 30 to 35 | CC[C@H](CO)Nc1nc(Nc2ccccn2)c2ncn(C(C)C)c2n1 |
| 176 | CC(=O)C1CCC2C3CCC4CC(=O)C(C)CC4(C)C3C(=O)CC12C (stereo not given) |
| 100 to 102 | CC1(C)C(C)(C)C1(Cl)c1ccccn1 |
| 102 to 103 | CCCC[C@H](NC(=O)[C@H](CC(C)C)NC(=O)c1ccccc1F)C(=O)CSCc1ccco1 |
| 192 to 198 | O=C(O)CCc1cc2cc(Cl)c(Cl)cc2n1S(=O)(=O)c1ccccc1 |
| 124 | CC(C)(Oc1ccc(Cl)cc1)C(=O)OCc1ncc(C(=O)O)s1 |
| 128 to 129 | O=C(NC(=NCCSCc1cccs1)NCCCc1c[nH]cn1)c1ccccc1 |
| 246 to 247 | CC1(C)Oc2ccc(C#N)cc2C(c2ccc[nH]c2=O)C1O (stereo not given) |
| 97 to 98 | CCN1CCc2cc([N+](=O)[O-])ccc21 |
| 118 | Clc1ccc(C2(CBr)OCC(COc3ccc4ccccc4c3)O2)c(Cl)c1 (stereo not given) |
| 214 to 215 | COC(=O)c1nc2cc(Cl)c3cccnc3c2o1 |
| 151 to 152 | c1ccc2c(c1)CCN(Cc1n[nH]c3ccccc13)C2 |
| 148 to 150 | O=Cc1c(-c2cccnc2)[nH]c2ccccc12 |
| 230 to 231 | CCN1CCN(Cc2cc(C)c3c(c2)-c2[nH]nc(-c4ccsc4)c2C3)CC1 |

| melting point [°C] | Compound |
| --- | --- |
| 160 to 161 | C=Cc1cc(NC(=O)N2CCN(c3cc(F)cc(F)c3)CC2)c(OC)nc1C |
| 182 | CCCN(CCC)C(=O)CN(C(=O)CNC(=O)Nc1cccc(C)c1)c1ccccc1 |
| 216 to 218 | CC1(C(=O)C(C(O)C(Cl)(Cl)Cl)n2cncn2)CC1 (stereo not given) |
| 189 to 190 | CCn1c(=O)n(OCc2ccccc2)c(=O)c2cc(F)c(N3CCCC3)nc21 |
| 82 | CCN(CC)C(=O)Nc1ccc(S(=O)(=O)N2C(=O)C(CCCN(C)C)(c3ccccc3F)c3cc(C)c(OC)cc32)cc1F (stereo not given) |
| 89 to 91 | Cc1cc(C)cc(C(OC(C)C(c2ccccc2)c2ccccc2)N(C)C(=O)c2ccccc2)c1 (stereo not given) |
| 33 to 36 | CCOc1ccc(OC)c([N+](=O)[O-])c1 |
| 148 to 149 | CC1(C)CC(OC(=O)c2ccccc2)CC(C)(C)N1OC(N)=O |
| 230 | O=C1Nc2cccnc2N(C(=O)CCl)c2cc(F)ccc21 |
| 131 to 132 | CC(=O)Nc1ccc(S(F)(F)(F)(F)F)cc1 |
| 162 | CCOC(=O)NC1=NN(c2cccc(Cl)c2)C(=O)C1C (stereo not given) |
| 198 to 200 | COc1cc2sc(C3=NNC(=O)CC3C)cc2cc1OCCCN1CCCCC1 (stereo not given) |
| > 270 | COc1ccc(CNC(=O)c2c(NC(=O)c3ccc(C(=O)O)cc3)sc3c2CCCC3)cc1OC |
| 130 to 132 | CNc1nccc(-c2cc(NCCCNCCCOC)c3cc(OC)ccc3c2)n1 |
| 75 to 76 | CCOC(=O)C=Cc1ccc(OCCCCOCc2ccccc2)nc1NC(=O)C(C)(C)C |
| > 300 | Cc1[nH]c(=O)c(C#N)c2c1CC(c1cccnc1)CC2 (stereo not given) |
| 89 to 91 | COC(=O)c1ccccc1NC(=O)CNc1ccccc1Br |
| 98 to 100 | CCOC(=O)c1cn(Cc2cn(-c3ccc(N4CC(CNC(=O)OC)OC4=O)cc3F)nn2)nc1N (stereo not given) |
| 157 to 159 | Fc1ccccc1-c1cccc2[nH]c3c(c12)CCN(Cc1ccccc1)CC3 |

| Compound | melting point [°C] |
| --- | --- |
| Nc1ccc2[nH]cc(C3=CCN4CCCC4C3)c2c1 (stereo not given) | 208 to 210 |
| C1=C(c2c[nH]c3ccccc23)CCN(CC2COc3ccc4c(c3O2)CCO4)C1 (stereo not given) | 207 to 209 |
